Reference: the Kinase Knowledgebase extract (Sharma et al. 2016)

Target: PIK3CG (human) (UniProt P48736)
Assay: Inhibition of PIK3CG Kinase Activity

PIK3CG (human), sequence (P48736 whole entry, looked up): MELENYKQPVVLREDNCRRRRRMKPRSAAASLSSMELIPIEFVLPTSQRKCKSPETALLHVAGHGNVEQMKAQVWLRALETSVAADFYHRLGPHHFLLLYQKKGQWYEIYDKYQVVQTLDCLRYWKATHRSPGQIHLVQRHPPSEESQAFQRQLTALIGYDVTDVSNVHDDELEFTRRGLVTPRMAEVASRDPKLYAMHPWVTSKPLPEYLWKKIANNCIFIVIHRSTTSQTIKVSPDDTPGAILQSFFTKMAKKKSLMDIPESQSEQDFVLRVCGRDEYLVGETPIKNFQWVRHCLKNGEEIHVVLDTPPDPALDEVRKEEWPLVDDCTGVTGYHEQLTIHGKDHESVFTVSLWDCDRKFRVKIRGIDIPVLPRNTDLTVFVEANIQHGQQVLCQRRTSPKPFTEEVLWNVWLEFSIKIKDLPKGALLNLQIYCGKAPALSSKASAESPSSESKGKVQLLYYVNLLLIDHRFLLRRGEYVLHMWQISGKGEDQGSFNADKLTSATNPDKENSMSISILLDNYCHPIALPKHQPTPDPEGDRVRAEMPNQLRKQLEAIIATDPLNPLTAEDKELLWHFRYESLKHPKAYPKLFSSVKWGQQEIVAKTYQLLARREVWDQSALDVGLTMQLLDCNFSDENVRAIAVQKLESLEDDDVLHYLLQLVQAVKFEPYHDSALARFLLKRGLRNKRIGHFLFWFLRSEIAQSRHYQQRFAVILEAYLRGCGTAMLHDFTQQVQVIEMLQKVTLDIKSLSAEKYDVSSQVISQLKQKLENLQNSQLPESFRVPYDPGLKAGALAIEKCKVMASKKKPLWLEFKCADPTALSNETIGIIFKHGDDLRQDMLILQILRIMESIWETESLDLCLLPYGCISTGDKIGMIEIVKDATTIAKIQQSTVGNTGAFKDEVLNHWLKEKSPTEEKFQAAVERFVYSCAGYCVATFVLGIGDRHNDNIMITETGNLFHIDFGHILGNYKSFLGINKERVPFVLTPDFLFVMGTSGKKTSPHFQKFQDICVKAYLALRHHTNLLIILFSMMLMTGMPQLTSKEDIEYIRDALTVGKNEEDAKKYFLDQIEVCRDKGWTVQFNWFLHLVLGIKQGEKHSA

Row | SMILES | IC50 [µM]
1 | Nc1nc2ccc(-c3cccc(Cl)c3)cn2n1 | < 10
2 | Nc1nc2ccc(-c3cncc(S(=O)(=O)N4Cc5ccccc5C4)c3)cn2n1 | < 10
3 | Nc1nc2ccc(-c3cncc(S(=O)(=O)Nc4ccc(OC(F)(F)F)cc4)c3)cn2n1 | < 10
4 | Nc1nc2ccc(-c3cccc(S(=O)(=O)NCC(=O)O)c3)cn2n1 | < 10
5 | COc1ccc(-c2cc(F)c3nc(N)nn3c2)cc1OC | < 10
6 | Nc1nc2ccc(-c3cncc(S(=O)(=O)NCc4ccccc4)c3)cn2n1 | < 10
7 | CC(C)(C)COc1cncc(-c2ccc3nc(N)nn3c2)c1 | < 10
8 | Nc1nc2ccc(-c3cncc(S(=O)(=O)Nc4ccccc4)c3)cn2n1 | < 10
9 | Nc1nc2ccc(-c3cncc(NS(=O)(=O)Cc4ccccc4C(F)(F)F)c3)cn2n1 | < 10
10 | Nc1nc2ccc(-c3cncc(NS(=O)(=O)c4ccccc4C(F)(F)F)c3)cn2n1 | < 10
11 | CCCNS(=O)(=O)c1cncc(-c2cc(F)c3nc(N)nn3c2)c1 | < 10
12 | Nc1nc2ccc(-c3ccncc3)cn2n1 | < 10
13 | CC(C)(NS(=O)(=O)c1cncc(-c2ccc3nc(N)nn3c2)c1)C(F)(F)F | < 10
14 | CCNS(=O)(=O)c1cncc(-c2ccc3nc(N)nn3c2)c1 | < 10
15 | Nc1nc2ccc(-c3cccc(F)c3)cn2n1 | < 10
16 | CN(C)CCN(C)S(=O)(=O)c1cccc(-c2ccc3nc(N)nn3c2)c1 | < 10
17 | CC(C)CNS(=O)(=O)c1cncc(-c2ccc3nc(N)nn3c2)c1 | < 10
18 | Nc1nc2ccc(-c3cncc(S(=O)(=O)NCC(F)(F)F)c3)cn2n1 | < 10
19 | COc1ccc(-c2ccc3nc(N)nn3c2)cc1 | < 10
20 | CN(C)CCN(C)S(=O)(=O)c1cncc(-c2ccc3nc(N)nn3c2)c1 | < 10
21 | COc1ccc(-c2ccc3nc(N)nn3c2)cc1O | < 10
22 | Nc1nc2c(F)cc(-c3cncc(S(=O)(=O)N4CCC4)c3)cn2n1 | < 10
23 | Nc1nc2ccc(-c3cncc(S(=O)(=O)N4CCCCCC4)c3)cn2n1 | < 10
24 | Nc1nc2ccc(-c3cccc(O)c3)cn2n1 | < 10
25 | CC(C)c1ccc(NS(=O)(=O)c2cncc(-c3ccc4nc(N)nn4c3)c2)cc1 | < 10
26 | Nc1nc2ccc(-c3cccc(S(=O)(=O)NCCCCC(=O)O)c3)cn2n1 | < 10

Row | SMILES | IC50 [µM]
27 | Nc1nc2ccc(-c3cncc(S(=O)(=O)NCc4cccc(Cl)c4Cl)c3)cn2n1 | < 10
28 | COc1ccc(-c2cc(C)c3nc(N)nn3c2)cc1OC | < 10
29 | COc1cc(-c2ccc3nc(N)nn3c2)ccc1O | < 10
30 | Nc1nc2ccc(-c3ccccc3)cn2n1 | < 10
31 | COc1ccc(-c2ccc3nc(NC(N)=O)nn3c2)cc1OC | < 10
32 | CCCCNS(=O)(=O)c1cccc(-c2ccc3nc(N)nn3c2)c1 | < 10
33 | Cc1nc(C)c(CNS(=O)(=O)c2cncc(-c3ccc4nc(N)nn4c3)c2)o1 | < 10
34 | CNS(=O)(=O)c1cncc(-c2cc(F)c3nc(N)nn3c2)c1 | < 10
35 | Nc1nc2ccc(-c3cncc(S(=O)(=O)NCC4CCCC4)c3)cn2n1 | < 10
36 | Nc1nc2ccc(-c3cncc(S(=O)(=O)Nc4cc(C(F)(F)F)cc(C(F)(F)F)c4)c3)cn2n1 | < 10
37 | Nc1nc2ccc(-c3cncc(NS(=O)(=O)c4cccc5ccccc45)c3)cn2n1 | < 10
38 | COc1cccc(-c2ccc3nc(N)nn3c2)c1 | < 10
39 | Nc1nc2ccc(-c3cncc(NS(=O)(=O)Cc4ccc(C(F)(F)F)cc4)c3)cn2n1 | < 10
40 | Nc1nc2ccc(-c3cccc(C(=O)O)c3)cn2n1 | < 10
41 | Nc1nc2c(F)cc(-c3cncc(C(F)(F)F)c3)cn2n1 | < 10
42 | CC(C)(NS(=O)(=O)c1cncc(-c2ccc3nc(N)nn3c2)c1)c1ccccc1 | < 10
43 | CN(Cc1cccc(Cl)c1Cl)S(=O)(=O)c1cncc(-c2ccc3nc(N)nn3c2)c1 | < 10
44 | Nc1nc2ccc(-c3cncnc3)cn2n1 | < 10
45 | Nc1nc2ccc(-c3cncc(S(=O)(=O)N4CCC(F)CC4)c3)cn2n1 | < 10
46 | COc1ccc(-c2ccc3nc(N)nn3c2)cc1OC | < 10
47 | CN(Cc1ccccc1)S(=O)(=O)c1cncc(-c2ccc3nc(N)nn3c2)c1 | < 10
48 | Nc1nc2ccc(-c3cncc(NS(=O)(=O)c4cccc(C(F)(F)F)c4)c3)cn2n1 | < 10
49 | CCN(CC)S(=O)(=O)c1cncc(-c2ccc3nc(N)nn3c2)c1 | < 10
50 | CCCCNS(=O)(=O)c1cncc(-c2ccc3nc(N)nn3c2)c1 | < 10
51 | Cc1cccc(-c2ccc3nc(N)nn3c2)c1 | < 10
52 | N#Cc1cccc(-c2ccc3nc(N)nn3c2)c1 | < 10
